Assays:
[1] = target: T1, recombinant human XT-I (Homo sapiens, UniProt Q86Y38); assay: NP library inhibitor screening, UPLC/ESI-MS/MS XT-I assay; format: biochemical; settings: 50 μM inhibitor, technical duplicates; for XT-I Activity [%]: Table 2, relative to control (DMSO = 100%); for remaining activity at 50 µM: Table S1, relative to negative control containing DMSO
T1 sequence (Q86Y38 252-959 limits assumed): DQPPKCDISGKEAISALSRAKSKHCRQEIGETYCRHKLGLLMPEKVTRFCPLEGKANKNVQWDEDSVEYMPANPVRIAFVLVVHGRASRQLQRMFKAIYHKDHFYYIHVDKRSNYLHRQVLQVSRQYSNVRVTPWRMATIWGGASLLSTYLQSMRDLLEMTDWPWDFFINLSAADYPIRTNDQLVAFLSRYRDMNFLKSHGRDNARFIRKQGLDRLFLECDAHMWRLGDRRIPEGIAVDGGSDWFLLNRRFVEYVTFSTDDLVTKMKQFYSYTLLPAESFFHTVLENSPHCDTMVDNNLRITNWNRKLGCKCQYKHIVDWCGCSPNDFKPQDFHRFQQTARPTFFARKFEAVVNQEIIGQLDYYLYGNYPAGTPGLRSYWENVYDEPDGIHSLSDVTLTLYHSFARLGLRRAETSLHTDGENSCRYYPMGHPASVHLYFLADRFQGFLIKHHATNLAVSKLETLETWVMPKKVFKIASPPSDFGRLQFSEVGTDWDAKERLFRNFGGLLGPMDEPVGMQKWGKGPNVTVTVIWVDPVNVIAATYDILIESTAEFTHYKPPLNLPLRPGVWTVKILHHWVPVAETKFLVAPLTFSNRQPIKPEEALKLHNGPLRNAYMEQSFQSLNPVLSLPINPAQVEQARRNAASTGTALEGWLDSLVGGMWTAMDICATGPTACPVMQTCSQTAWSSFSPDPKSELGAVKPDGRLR

[2] = system: XYLT1 mRNA expression; assay: XYLT1 mRNA expression in NHDFs by qRT-PCR; format: cell-based, human; settings: 48 h; for TGF-β1-mediated XYLT1 mRNA expression relative to TGF-β1 only: with TGF-β1 (5 μg/L)
Description: A former established cell culture model was utilized to investigate the effect of putative XT-I inhibitors on NHDFs. The inhibition studies were carried out with final inhibitor concentrations of 0.5, 1.0, 2.0 or 4.0 μM diluted in fully supplemented DMEM. In brief, unless otherwise stated, NHDFs were cultivated with a low density of 50 cells per mm^2 on a hard tissue culture substrate (100 × 20 mm dish) in fully supplemented DMEM with or without additional TGF-β1 (5 μg/L) for 24 h, promoting their transdifferentiation into proto-myofibroblasts. Thereafter, cells were treated with celastrol or amphotericin B in the presence or absence of TGF-β1 (5 μg/L) for an additional 48 h. Negative controls treated with solvent only were included for every sampling time. The final DMSO content of 0.04% (v/v) was kept constant in all inhibition experiments. […]
The RNA extraction from cell lysates and cDNA synthesis for mRNA and miRNA expression analysis were performed as described previously.
Quantitative real-time polymerase chain reaction (qRT-PCR) analysis using a LightCycler 480 Instrument II system (Roche, Basel, Swiss) was performed as previously described. The qRT-PCR experiments were conducted with three biological and three technical replicates per donor-derived primary cell culture, unless otherwise stated. The intron-spanning primer sequences used are listed in [7] and Table 1. The geometric mean of the expression levels of the housekeeping genes SDHA, RPL13A and B2M were calculated for expression normalization. The relative target gene mRNA expressions were determined by the ΔΔCT method considering the PCR efficiency. All normalized gene expression levels shown were referred to the respective target gene expression of one primary cell culture sample for the relative comparison of multiple biological samples per experiment and figures.

Compound | XT-I Activity [%] [1] | remaining activity at 50 µM [1] | TGF-β1-mediated XYLT1 mRNA expression relative to TGF-β1 only ([2]; 0.5 μM) | basal XYLT1 mRNA expression relative to control ([2]; 0.5 μM, without TGF-β1) | TGF-β1-mediated XYLT1 mRNA expression relative to TGF-β1 only ([2]; 1.0 μM) | basal XYLT1 mRNA expression relative to control ([2]; 1.0 μM, without TGF-β1) | TGF-β1-mediated XYLT1 mRNA expression relative to TGF-β1 only ([2]; 2.0 μM) | basal XYLT1 mRNA expression relative to DMSO control ([2]; 2.0 μM, without TGF-β1)
CC1=C(O)C(=O)C=C2C1=CC=C1[C@@]2(C)CC[C@@]2(C)[C@@H]3C[C@](C)(C(=O)O)CC[C@]3(C)CC[C@]12C [Compound 68, Celastrol] | 38% | 38% | nor effected | neither changed | 0.8 ± 0.07 fold | 0.8 ± 0.06 fold |  | 
C[C@@H]1[C@H](O)[C@@H](C)/C=C/C=C/C=C/C=C/C=C/C=C/C=C/[C@H](O[C@@H]2O[C@H](C)[C@@H](O)[C@H](N)[C@@H]2O)C[C@@H]2O[C@](O)(C[C@@H](O)C[C@@H](O)[C@H](O)CC[C@@H](O)C[C@@H](O)CC(=O)O[C@H]1C)C[C@H](O)[C@H]2C(=O)O [Compound 17, Amphotericin B] | 25% | 25% | 0.9 ± 0.07 fold | 0.6 ± 0.06 fold | 0.8 ± 0.06 fold | 0.6 ± 0.05 fold | 0.7 ± 0.03 fold | 0.6 ± 0.09 fold
